Laboratory results published in patent publication US8871934B2, “Fluorene compound and pharmaceutical use thereof” (Japan Tobacco Inc., priority 2008, dated 2014).
Like-named read-outs stand apart in the source and are kept apart here.

Target: human PDHK2 (hPDHK2) (Homo sapiens (Human), UniProt Q15119)
Assay: Inhibitory action of PDHK activity in vitro (kinase reaction, residual PDH activity measured)
Assay type: biochemical
[1] = PDHK inhibitory activity, class symbol of IC50
[2] = read-out: PDHK inhibitory activity IC50
[3] = PDHK inhibitory activity IC50 (μmol/L)

IC50 [3] [nM]	SMILES	IC50 [1] [nM]	IC50 [2] [nM]	IC50 (PDHK inhibitory activity (class symbol)) [nM]	IC50 (class symbol of IC50, read-out: PDHK inhibitory activity) [nM]
	O=C(NCCO)c1ccc2c(c1)C(O)(C(F)(F)F)c1ccccc1-2 (stereo not drawn) [compound 310]	> 1000	> 10000		
	O=C(O)CCCOc1cc(Cl)c2c(c1)C(O)(C(F)(F)F)c1ccccc1-2 (single isomer, unassigned) [compound 479]	> 1000	> 10000		
	OC1(C(F)(F)F)c2ccccc2-c2c(F)cccc21 (stereo not drawn) [compound 11]	> 1000	6790		
	O=C(O)c1ccc(-c2ccc3c(c2)C(O)(C(F)(F)F)c2ccccc2-3)cc1 (stereo not drawn) [compound 188]	100 to 1000	383		
	O=C(O)CCn1cc(-c2cccc3c2-c2ccccc2C3(O)C(F)(F)F)cn1 (stereo not drawn) [compound 485]	100 to 1000	117		
	CC(C)n1cc(-c2cc(CO)c3c(c2)C(O)(C(F)(F)F)c2ccccc2-3)cn1 (stereo not drawn) [compound 621]		65	< 100	
	OCc1cccc2c1-c1ccccc1C2(O)C(F)(F)F (stereo not drawn) [compound 74]	> 1000	3320		
	CNCCCOc1ccc2c(c1)C(O)(C(F)(F)F)c1ccccc1-2 (stereo not drawn) [compound 332]	100 to 1000	912		
	Cc1nn(C)c(C)c1-c1ccc2c(c1)C(O)(C(F)(F)F)c1ccccc1-2 (stereo not drawn) [compound 555]		> 1000		> 1000
	NCCOc1ccc2c(c1)C(O)(C(F)(F)F)c1ccccc1-2 (stereo not drawn) [compound 320]	> 1000	8760		
	CCn1cc(-c2cc(OCCCC(=O)O)cc3c2-c2ccccc2C3(O)C(F)(F)F)cn1 (single isomer, unassigned) [compound 554]	< 100	20		
	COc1cc(-c2cnn(CCC(=O)O)c2)c2c(c1)C(O)(C(F)(F)F)c1ccccc1-2 (single isomer, unassigned) [compound 588]	< 100	29		
	O=C(COc1ccc2c(c1)C(O)(C(F)(F)F)c1ccccc1-2)N1CCC1 (stereo not drawn) [compound 391]	100 to 1000	485		
	C/C=C/c1ccc2c(c1)C(O)(C(F)(F)F)c1ccccc1-2 (stereo not drawn) [compound 248]	> 1000	1020		
	OC1(C(F)(F)F)c2ccccc2-c2ccc(N3CCOCC3)cc21 (stereo not drawn) [compound 161]	> 1000	2110		
	O=C(c1ccc2c(c1)C(O)(C(F)(F)F)c1ccccc1-2)N1CCC1 (stereo not drawn) [compound 58]	100 to 1000	195		
	O=C(O)C1CCCN1C(=O)c1ccc2c(c1)C(O)(C(F)(F)F)c1ccccc1-2 (stereo not drawn) [compound 168]	> 1000	> 10000		
	O=C(c1cc(Cl)c2c(c1)C(O)(C(F)(F)F)c1ccccc1-2)N1CC(O)C1 (stereo not drawn) [compound 339]	100 to 1000	177		
	Cc1cc(-c2cnn(CC(C)(C)C(=O)O)c2)c2c(c1)C(O)(C(F)(F)F)c1ccccc1-2 (single isomer, unassigned) [compound 575]	< 100	36		
	CCCCCCOc1ccc2c(c1)C(O)(C(F)(F)F)c1ccccc1-2 (stereo not drawn) [compound 294]	100 to 1000	710		
	Cn1cc(-c2cc(OCCO)cc3c2-c2ccccc2C3(O)C(F)(F)F)cn1 (stereo not drawn) [compound 456]	< 100	45		
	Cn1cc(-c2cc(OCCCC(=O)O)cc3c2-c2ccccc2C3(O)C(F)(F)F)cn1 (stereo not drawn) [compound 449]	< 100	47		

IC50 [3] [nM]	SMILES	IC50 [1] [nM]	IC50 [2] [nM]	IC50 (PDHK inhibitory activity (class symbol)) [nM]	IC50 (class symbol of IC50, read-out: PDHK inhibitory activity) [nM]
	O=C(c1cc(-c2cnn(CCO)c2)c2c(c1)C(O)(C(F)(F)F)c1ccccc1-2)N1CCC1 (stereo not drawn) [compound 461]	< 100	30		
	CN(C)C(=O)C1CCN(c2ccc3c(c2)C(O)(C(F)(F)F)c2ccccc2-3)CC1 (stereo not drawn) [compound 232]	> 1000	1990		
	CCOc1cc(-c2cnn(CCC(=O)O)c2)c2c(c1)C(O)(C(F)(F)F)c1ccccc1-2 (single isomer, unassigned) [compound 581]	< 100	19		
	OC1(C(F)(F)F)c2ccccc2-c2ccc(C3CCCCC3)cc21 (stereo not drawn) [compound 169]	> 1000	7360		
16	Cc1cc(-c2cnn(CC(N)=O)c2)c2c(c1)[C@@](O)(C(F)(F)F)c1ccccc1-2 (stereo in doubt) [compound 532]	< 100			
	Cn1cc(-c2cc(-c3cnn(C)c3)c3c(c2)C(O)(C(F)(F)F)c2ccccc2-3)cn1 (stereo not drawn) [compound 579]	< 100	19		
	O=C1CCCN1CCCOc1ccc2c(c1)C(O)(C(F)(F)F)c1ccccc1-2 (stereo not drawn) [compound 395]	100 to 1000	699		
	Cn1cc(-c2cccc3c2-c2ccccc2C3(O)C(F)(F)F)cn1 (stereo not drawn) [compound 263]	100 to 1000	133		
	COCOCCN1C(=O)CCC1COc1ccc2c(c1)C(O)(C(F)(F)F)c1ccccc1-2 (stereo not drawn) [compound 431]	100 to 1000	250		
	O=C1CCCN1c1ccc2c(c1)C(O)(C(F)(F)F)c1ccccc1-2 (stereo not drawn) [compound 147]	> 1000	1730		
	OCCCCOc1cc(-c2cncnc2)c2c(c1)C(O)(C(F)(F)F)c1ccccc1-2 (stereo not drawn) [compound 428]	< 100	25		
	Cn1cc(-c2cc(OCCCc3nnn[nH]3)cc3c2-c2ccccc2C3(O)C(F)(F)F)cn1 (single isomer, unassigned) [compound 573]	< 100	18		
	N#Cc1ccc(-c2ccc3c(c2)C(O)(C(F)(F)F)c2ccccc2-3)cc1 (stereo not drawn) [compound 224]	100 to 1000	214		
	O=C(NCCCCO)c1ccc2c(c1)C(O)(C(F)(F)F)c1ccccc1-2 (stereo not drawn) [compound 312]	> 1000	1820		
	O=C1CC[C@@H](COc2ccc3c(c2)C(O)(C(F)(F)F)c2ccccc2-3)N1 (stereo partly drawn) [compound 446]	100 to 1000	565		
	CNC(=O)COc1ccc2c(c1)C(O)(C(F)(F)F)c1ccccc1-2 (stereo not drawn) [compound 289]	100 to 1000	641		
	Cn1cc(-c2cc(C(=O)N3CC(O)C3)cc3c2-c2ccccc2C3(O)C(F)(F)F)cn1 (stereo not drawn) [compound 373]	< 100	49		
	O=C(c1ccc2c(c1)C(O)(C(F)(F)F)c1ccccc1-2)C1CCCC1 (stereo not drawn) [compound 109]	> 1000	1320		
20	OCCn1cc(-c2cc(F)cc3c2-c2ccccc2[C@]3(O)C(F)(F)F)cn1 (stereo in doubt) [compound 531]	< 100			
	O=C(O)C1CN(C(=O)c2ccc3c(c2)C(O)(C(F)(F)F)c2ccccc2-3)C1 (stereo not drawn) [compound 121]	> 1000	3680		
	COc1ccccc1-c1ccc2c(c1)C(O)(C(F)(F)F)c1ccccc1-2 (stereo not drawn) [compound 170]	> 1000	6740		
	O=C1CCC(COc2ccc3c(c2)C(O)(C(F)(F)F)c2ccccc2-3)N1CCO (stereo not drawn) [compound 432]	100 to 1000	247		

IC50 [3] [nM]	SMILES	IC50 [1] [nM]	IC50 [2] [nM]	IC50 (PDHK inhibitory activity (class symbol)) [nM]	IC50 (class symbol of IC50, read-out: PDHK inhibitory activity) [nM]
	CC(=O)c1cc(-c2cnn(CCO)c2)cc2c1-c1ccccc1C2(O)C(F)(F)F (stereo not drawn) [compound 585]	< 100	26		
	O[C@H]1CCN(CCOc2ccc3c(c2)C(O)(C(F)(F)F)c2ccccc2-3)C1 (stereo partly drawn) [compound 389]	100 to 1000	822		
	Cn1cc(-c2cc(C(=O)N3CC(CO)C3)cc3c2-c2ccccc2C3(O)C(F)(F)F)cn1 (stereo not drawn) [compound 374]	< 100	49		
	OCCCCCOc1cc(Cl)c2c(c1)C(O)(C(F)(F)F)c1ccccc1-2 (stereo not drawn) [compound 387]	< 100	63		
	NC(=O)c1ccccc1-c1ccc2c(c1)C(O)(C(F)(F)F)c1ccccc1-2 (stereo not drawn) [compound 182]	> 1000	> 10000		
	OCCc1ccc2c(c1)C(O)(C(F)(F)F)c1ccccc1-2 (stereo not drawn) [compound 405]	> 1000	6380		
	O=C(O)C1CCN(c2ccc3c(c2)C(O)(C(F)(F)F)c2ccccc2-3)CC1 (stereo not drawn) [compound 222]	> 1000	5390		
	CN(CCOc1cc(-c2cnn(C)c2)c2c(c1)C(O)(C(F)(F)F)c1ccccc1-2)C(=O)C(C)(C)O (stereo not drawn) [compound 501]	< 100	32		
	COCc1cccc2c1-c1ccccc1C2(O)C(F)(F)F (stereo not drawn) [compound 82]	> 1000	67300		
	Cc1cc(C(=O)N2CC(CO)C2)cc2c1-c1ccccc1C2(O)C(F)(F)F (stereo not drawn) [compound 351]	100 to 1000	168		
	CN(CCOc1cc(-c2cnn(C)c2)c2c(c1)C(O)(C(F)(F)F)c1ccccc1-2)C(=O)C(C)(C)C (stereo not drawn) [compound 471]	< 100	26		
	OCCCCOc1ccc2c(c1)C(O)(C(F)(F)F)c1ccccc1-2 (stereo not drawn) [compound 270]	100 to 1000	533		
	Cc1cc(-c2cnn(CCO)c2)c2c(c1)C(O)(C(F)(F)F)c1ccccc1-2 (stereo not drawn) [compound 492]	< 100	40		
	CCCCCOc1ccc2c(c1)C(O)(C(F)(F)F)c1ccccc1-2 (stereo not drawn) [compound 278]	100 to 1000	862		
	O=C1OCCN1CCOc1ccc2c(c1)C(O)(C(F)(F)F)c1ccccc1-2 (stereo not drawn) [compound 459]	100 to 1000	185		
	OC1(C(F)(F)F)c2ccccc2-c2ccc(OCC3CC3)cc21 (stereo not drawn) [compound 256]	> 1000	1000		
	COC(=O)COc1ccc2c(c1)C(O)(C(F)(F)F)c1ccccc1-2 (stereo not drawn) [compound 357]	> 1000	1940		
	OC1(C(F)(F)F)c2ccccc2-c2c(-c3ncco3)cccc21 (stereo not drawn) [compound 131]	> 1000	> 10000		
	OCCn1cc(-c2cc(OCCC34CC5CC(CC(O)(C5)C3)C4)cc3c2-c2ccccc2C3(O)C(F)(F)F)cn1 (single isomer, unassigned) [compound 542]	< 100	15		
	OC1(C(F)(F)F)c2ccccc2-c2c(-c3nnco3)cccc21 (stereo not drawn) [compound 140]	> 1000	2400		
	CNC(=O)c1ccc(-c2ccc3c(c2)C(O)(C(F)(F)F)c2ccccc2-3)cc1 (stereo not drawn) [compound 191]	100 to 1000	216		
	Cc1cccc(-c2ccc3c(c2)C(O)(C(F)(F)F)c2ccccc2-3)c1 (stereo not drawn) [compound 137]	> 1000	1010		
